Experimental data taken from PubChem BioAssay (NCI).
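In this assay, cells in 96-well plates receive the compound at five concentrations for 48 hours. Endpoints are linearly interpolated between the surrounding concentrations. TGI: concentration producing complete growth inhibition.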

How the values were obtained:
Assay in all cases: DTP human tumour cell line panel, 48 h
MALME-3M melanoma = tested on: MALME-3M melanoma
SF-268 CNS = tested on: SF-268 CNS
SF-295 CNS = tested on: SF-295 CNS
NCI/ADR-RES ovarian = tested on: NCI/ADR-RES ovarian
U251 CNS = tested on: U251 CNS
SR leukemia = tested on: SR leukemia
HCC-2998 colon = tested on: HCC-2998 colon
OVCAR-8 ovarian = tested on: OVCAR-8 ovarian
HOP-92 NSCLC = tested on: HOP-92 NSCLC
EKVX NSCLC = tested on: EKVX NSCLC
M14 melanoma = tested on: M14 melanoma
SNB-19 CNS = tested on: SNB-19 CNS
MCF7 breast = tested on: MCF7 breast
BT-549 breast = tested on: BT-549 breast
HCT-15 colon = tested on: HCT-15 colon
MOLT-4 leukemia = tested on: MOLT-4 leukemia
NCI-H226 lung = tested on: NCI-H226 lung
NCI-H460 lung = tested on: NCI-H460 lung
A498 renal = tested on: A498 renal

| SMILES | TGI (MALME-3M melanoma) | TGI (SF-268 CNS) | TGI (SF-295 CNS) | TGI (NCI/ADR-RES ovarian) | TGI (U251 CNS) | TGI (SR leukemia) | TGI (HCC-2998 colon) | TGI (OVCAR-8 ovarian) | TGI (HOP-92 NSCLC) | TGI (EKVX NSCLC) | TGI (M14 melanoma) | TGI (SNB-19 CNS) | TGI (MCF7 breast) | TGI (BT-549 breast) | TGI (HCT-15 colon) | TGI (MOLT-4 leukemia) | TGI (NCI-H226 lung) | TGI (NCI-H460 lung) | TGI (A498 renal) |
| --- | --- | --- | --- | --- | --- | --- | --- | --- | --- | --- | --- | --- | --- | --- | --- | --- | --- | --- | --- |
| CCCC(=O)NC(C(=O)OCC)(N1CCOCC1)C(F)(F)F (stereo not drawn) | > 100 µM | > 100 µM | > 100 µM | > 100 µM | > 100 µM | > 100 µM | > 100 µM | > 100 µM | > 100 µM | > 100 µM | > 100 µM | > 100 µM | > 100 µM | > 100 µM | > 100 µM | > 100 µM | > 100 µM |  |  |
| COc1cc([C@H]2CC(=O)C[C@@H](c3cc(OC)c(OC)c(OC)c3)C23C(=O)c2ccccc2C3=O)cc(OC)c1OC | > 100 µM | > 100 µM | > 100 µM | > 100 µM | > 100 µM | > 100 µM | > 100 µM | > 100 µM | > 100 µM | > 100 µM | > 100 µM | > 100 µM | > 100 µM | > 100 µM | > 100 µM | > 100 µM | > 100 µM | > 100 µM |  |
| Cc1ccc([N+](=O)[O-])cc1S(=O)(=O)Nc1ccc(C2=NN(C(=O)c3ccccc3)C(c3cccs3)C2)cc1 (stereo not drawn) | 68.6 µM | > 100 µM | > 100 µM | > 100 µM | > 100 µM | > 100 µM |  | > 100 µM | 55.3 µM | 67.7 µM | > 100 µM | > 100 µM | > 100 µM | > 100 µM | > 100 µM | > 100 µM | 88.3 µM |  | 50.8 µM |
| CN(C)CCNC1=CC(=O)c2nc3ccccc3c3ccnc1c23 | 16.2 µM | 21.5 µM | 19.8 µM | 28.5 µM | 25.5 µM | 9.05 µM | 16.8 µM | 37.5 µM | 60.9 µM | 14.3 µM | 21.6 µM | 29.6 µM | 16.3 µM | 21.4 µM | 20.3 µM | 13.6 µM | 18.8 µM | 9.91 µM |  |
| CC(C)(O)CO/N=C1\C(c2c(O)[nH]c3ccccc23)=Nc2ccccc21 | > 60.6 µM | > 60 µM | 18.4 µM | > 64.8 µM | > 68.4 µM | > 100 µM | 3.27 µM | > 44.4 µM | > 91.6 µM | > 36.3 µM | > 43.3 µM | > 52.6 µM | 7.16 µM | 28.6 µM | 30.7 µM | > 43.1 µM |  | 9.71 µM | 3.63 µM |
| CO/N=C(\C(=O)Nc1cncs1)c1csc(N)n1 | > 10 µM | > 10 µM | > 10 µM | > 10 µM | > 10 µM | > 10 µM | > 10 µM | > 10 µM | > 10 µM | > 10 µM | > 10 µM | > 10 µM | > 10 µM | > 10 µM | > 10 µM | > 10 µM |  | > 10 µM | > 10 µM |
| COC(=O)c1ccc(COC(=O)N2C=CCC2C(=O)O)cc1 (stereo not drawn) | > 100 µM | > 100 µM | > 100 µM | > 100 µM | > 100 µM | > 100 µM | > 100 µM | > 100 µM | > 100 µM |  | > 100 µM | > 100 µM | > 100 µM | > 100 µM | > 100 µM | > 100 µM | > 100 µM | > 100 µM |  |
| CCC12CC(c3ccccc3)C(C(=O)N1)C(=O)N2 (stereo not drawn) | > 100 µM | > 100 µM | > 100 µM | > 100 µM | > 100 µM | > 100 µM |  | > 100 µM | > 100 µM | > 100 µM | > 100 µM | > 100 µM | > 100 µM | > 100 µM | > 100 µM | > 100 µM | > 100 µM | > 100 µM | > 100 µM |
| CC1=CC(=O)[C@@H](O)[C@]2(C)[C@H]3[C@@]4(O)OC[C@@]35[C@@H](C[C@@H]12)OC(=O)C(OC(=O)CC1=CCCC1)[C@H]5[C@@H](C)[C@H]4O (stereo partly drawn) | 0.0666 µM | 0.132 µM | 0.448 µM | 1.21 µM |  | > 100 µM | 0.232 µM | 0.139 µM | 1.15 µM | 1.45 µM | 0.103 µM |  | 0.656 µM | 0.198 µM |  | 2.53 µM | 0.0632 µM | 0.133 µM |  |
| O=C(Nc1sccc1S(=O)(=O)c1ccc(Cl)cc1)c1ccccc1 | > 100 µM | > 100 µM | > 100 µM | > 100 µM | > 100 µM | > 100 µM |  | > 100 µM | > 100 µM | > 100 µM | > 100 µM | > 100 µM | > 100 µM | > 100 µM | > 100 µM | > 100 µM | > 100 µM | > 100 µM | > 100 µM |
| C/C(=N\Nc1nc2ccccc2s1)c1cnccn1 | 43.7 µM | > 22.7 µM | > 23.5 µM | 4.88 µM | > 100 µM | > 100 µM | 31.9 µM | 5.86 µM | > 28.3 µM | 5 µM | 12.3 µM | > 29.4 µM | 20.2 µM | > 100 µM | 18.2 µM |  | 1.38 µM | 15 µM |  |
| CCCNC(=O)Cn1c(C)cc2ccccc21 | > 100 µM | > 100 µM |  | > 100 µM | > 100 µM | > 100 µM | > 100 µM | > 100 µM | > 100 µM | > 100 µM | > 100 µM | > 100 µM | > 100 µM | > 100 µM | > 100 µM | > 100 µM | > 100 µM |  |  |
| CSc1nc2c(c(=O)[nH]1)N=C(c1ccc(Cl)cc1)CC(c1ccccc1)N2 (stereo not drawn) | 42.8 µM |  | 32.6 µM | 29.5 µM | 39.3 µM | > 100 µM | 28.8 µM | 31.4 µM | 38.7 µM | 40.9 µM | 29.9 µM | 29.9 µM | 33.2 µM | 45.4 µM |  | 61.8 µM | 58.7 µM |  | > 100 µM |
